Calls of active or inactive are those of the source. The calls are words filed in the database; no cut-off is given here.
Columns and labels:
Rattus norvegicus [1] = species on record: Rattus norvegicus; experiment: Inhibition of rat liver microsomal CRTAase-mediated inhibition of cytosolic glutathione S-transferase activity
Rattus norvegicus [2] = species on record: Rattus norvegicus; experiment: Inhibition of rat liver microsomal CRTAase catalyzed activation of NADPH cytochrome C reductase
Platelet = experiment: Increase in NO levels in citreated human platelet rich plasma assessed as enhancement of dichloro fluorescein fluorescence by flow cytometry; assay type: functional

| Activity (Rattus norvegicus [1]) | Activity (Rattus norvegicus [2]) | SMILES | Activity (Platelet) |
| --- | --- | --- | --- |
| Active | Active | CCCCCCCCCCc1c(C)c2ccc(OC(C)=O)cc2oc1=O | Active |
| Active | Active | CCCCCCc1c(C)c2ccc(OC(C)=O)c(OC(C)=O)c2oc1=O | Active |
| Active | Active | CC(=O)Oc1ccc2c(C)cc(=O)oc2c1 | Active |
| Active | Active | CCCCCCc1c(C)c2ccc(OC(C)=O)cc2oc1=O | Active |
| Active | Active | CCc1c(C)c2ccc(OC(C)=O)c(OC(C)=O)c2oc1=O | Active |
| Active | Active | CCc1c(C)c2ccc(OC(C)=O)cc2oc1=O | Active |
| Active | Active | CCCCCCCCCCc1c(C)c2ccc(OC(C)=O)c(OC(C)=O)c2oc1=O | Active |
| Active | Active | CC(=O)Oc1ccc2c(C)cc(=O)oc2c1OC(C)=O | Active |

— ChEMBL document CHEMBL1152733, “Specificities of calreticulin transacetylase to acetoxy derivatives of 3-alkyl-4-methylcoumarins: effect on the activation of nitric oxide synthase” (Bioorg Med Chem, 2009)
